Data as given in ChEMBL document CHEMBL4420075, “Seriniquinones, melanoma-specific anticancer agents” (2016).

Legend:
Format in all cases: functional
SNB-75 = assay: Growth inhibition of human SNB75 cells assessed as cell growth incubated for 48 hrs by sulforhodamine B assay; parameters: concentration or dose not given beside the values
RXF 393 = assay: Growth inhibition of human RXF393 cells assessed as cell growth incubated for 48 hrs by sulforhodamine B assay; parameters: concentration or dose not given beside the values
RPMI-8226 = assay: Growth inhibition of human RPMI8226 cells assessed as cell growth incubated for 48 hrs by sulforhodamine B assay; parameters: concentration or dose not given beside the values
DU-145 = assay: Growth inhibition of human DU145 cells assessed as cell growth incubated for 48 hrs by sulforhodamine B assay; parameters: concentration or dose not given beside the values
UACC-62 = assay: Growth inhibition of human UACC62 cells assessed as cell growth incubated for 48 hrs by sulforhodamine B assay; parameters: concentration or dose not given beside the values
Malme-3M = assay: Growth inhibition of human MALME-3M cells assessed as cell growth incubated for 48 hrs by sulforhodamine B assay; parameters: scale not given: the % may be the effect or the level left
HL-60(TB) = assay: Growth inhibition of human HL-60(TB) cells assessed as cell growth incubated for 48 hrs by sulforhodamine B assay; parameters: concentration or dose not given beside the values
HOP-92 = assay: Growth inhibition of human HOP92 cells assessed as cell growth incubated for 48 hrs by sulforhodamine B assay; parameters: concentration or dose not given beside the values
CAKI-1 = assay: Growth inhibition of human Caki1 cells assessed as cell growth incubated for 48 hrs by sulforhodamine B assay; parameters: concentration or dose not given beside the values
IGROV-1 = assay: Growth inhibition of human IGROV1 cells assessed as cell growth incubated for 48 hrs by sulforhodamine B assay; parameters: scale not given: the % may be the effect or the level left
MDA-MB-468 = assay: Growth inhibition of human MDA-MB-468 cells assessed as cell growth incubated for 48 hrs by sulforhodamine B assay; parameters: concentration or dose not given beside the values
CCRF-CEM = assay: Growth inhibition of human CCRF-CEM cells assessed as cell growth incubated for 48 hrs by sulforhodamine B assay; parameters: concentration or dose not given beside the values
SF-539 = assay: Growth inhibition of human SF539 cells assessed as cell growth incubated for 48 hrs by sulforhodamine B assay; parameters: scale not given: the % may be the effect or the level left
UO-31 = assay: Growth inhibition of human UO31 cells assessed as cell growth incubated for 48 hrs by sulforhodamine B assay; parameters: concentration or dose not given beside the values
SN12C = assay: Growth inhibition of human SN12C cells assessed as cell growth incubated for 48 hrs by sulforhodamine B assay; parameters: concentration or dose not given beside the values
SW-620 = assay: Growth inhibition of human SW620 cells assessed as cell growth incubated for 48 hrs by sulforhodamine B assay; parameters: concentration or dose not given beside the values
NCI-H522 = assay: Growth inhibition of human NCI-H522 cells assessed as cell growth incubated for 48 hrs by sulforhodamine B assay; parameters: concentration or dose not given beside the values
M14 = assay: Growth inhibition of human M14 cells assessed as cell growth incubated for 48 hrs by sulforhodamine B assay; parameters: concentration or dose not given beside the values
K562 = assay: Growth inhibition of human K562 cells assessed as cell growth incubated for 48 hrs by sulforhodamine B assay; parameters: concentration or dose not given beside the values
MCF7 = assay: Growth inhibition of human MCF7 cells assessed as cell growth incubated for 48 hrs by sulforhodamine B assay; parameters: concentration or dose not given beside the values
SF-268 = assay: Growth inhibition of human SF268 cells assessed as cell growth incubated for 48 hrs by sulforhodamine B assay; parameters: concentration or dose not given beside the values
NCI-H23 = assay: Growth inhibition of human NCI-H23 cells assessed as cell growth incubated for 48 hrs by sulforhodamine B assay; parameters: concentration or dose not given beside the values
SNB-19 = assay: Growth inhibition of human SNB19 cells assessed as cell growth incubated for 48 hrs by sulforhodamine B assay; parameters: concentration or dose not given beside the values
ACHN = assay: Growth inhibition of human ACHN cells assessed as cell growth incubated for 48 hrs by sulforhodamine B assay; parameters: scale not given: the % may be the effect or the level left
MOLT-4 = assay: Growth inhibition of human MOLT4 cells assessed as cell growth incubated for 48 hrs by sulforhodamine B assay; parameters: concentration or dose not given beside the values
HT-29 = assay: Growth inhibition of human HT-29 cells assessed as cell growth incubated for 48 hrs by sulforhodamine B assay; parameters: concentration or dose not given beside the values
A549 = assay: Growth inhibition of human A549/ATCC cells assessed as cell growth incubated for 48 hrs by sulforhodamine B assay; parameters: concentration or dose not given beside the values
T47D = assay: Growth inhibition of human T47D cells assessed as cell growth incubated for 48 hrs by sulforhodamine B assay; parameters: concentration or dose not given beside the values
SR = assay: Growth inhibition of human SR cells assessed as cell growth incubated for 48 hrs by sulforhodamine B assay; parameters: concentration or dose not given beside the values
SF-295 = assay: Growth inhibition of human SF295 cells assessed as cell growth incubated for 48 hrs by sulforhodamine B assay; parameters: concentration or dose not given beside the values
PC-3 = assay: Growth inhibition of human PC3 cells assessed as cell growth incubated for 48 hrs by sulforhodamine B assay; parameters: concentration or dose not given beside the values
OVCAR-8 = assay: Growth inhibition of human OVCAR8 cells assessed as cell growth incubated for 48 hrs by sulforhodamine B assay; parameters: concentration or dose not given beside the values
UACC-257 = assay: Growth inhibition of human UACC257 cells assessed as cell growth incubated for 48 hrs by sulforhodamine B assay; parameters: concentration or dose not given beside the values
NCI-H226 = assay: Growth inhibition of human NCI-H226 cells assessed as cell growth incubated for 48 hrs by sulforhodamine B assay; parameters: concentration or dose not given beside the values
TK-10 = assay: Growth inhibition of human TK10 cells assessed as cell growth incubated for 48 hrs by sulforhodamine B assay; parameters: concentration or dose not given beside the values
Hs-578T = assay: Growth inhibition of human Hs 578T cells assessed as cell growth incubated for 48 hrs by sulforhodamine B assay; parameters: concentration or dose not given beside the values
NCI-H322M = assay: Growth inhibition of human NCI-H322M cells assessed as cell growth incubated for 48 hrs by sulforhodamine B assay; parameters: scale not given: the % may be the effect or the level left
BT-549 = assay: Growth inhibition of human BT549 cells assessed as cell growth incubated for 48 hrs by sulforhodamine B assay; parameters: concentration or dose not given beside the values
MDA-MB-435 = assay: Growth inhibition of human MDA-MB-435 cells assessed as cell growth incubated for 48 hrs by sulforhodamine B assay; parameters: concentration or dose not given beside the values
NCI-H460 = assay: Growth inhibition of human NCI-H460 cells assessed as cell growth incubated for 48 hrs by sulforhodamine B assay; parameters: concentration or dose not given beside the values
COLO 205 = assay: Growth inhibition of human COLO205 cells assessed as cell growth incubated for 48 hrs by sulforhodamine B assay; parameters: concentration or dose not given beside the values
HCT-15 = assay: Growth inhibition of human HCT15 cells assessed as cell growth incubated for 48 hrs by sulforhodamine B assay; parameters: scale not given: the % may be the effect or the level left
SK-MEL-28 = assay: Growth inhibition of human SK-MEL-28 cells assessed as cell growth incubated for 48 hrs by sulforhodamine B assay; parameters: concentration or dose not given beside the values
NCI/ADR-RES = assay: Growth inhibition of human NCI/ADR-RES cells assessed as cell growth incubated for 48 hrs by sulforhodamine B assay; parameters: concentration or dose not given beside the values
OVCAR-5 = assay: Growth inhibition of human OVCAR5 cells assessed as cell growth incubated for 48 hrs by sulforhodamine B assay; parameters: scale not given: the % may be the effect or the level left
OVCAR-4 = assay: Growth inhibition of human OVCAR4 cells assessed as cell growth incubated for 48 hrs by sulforhodamine B assay; parameters: concentration or dose not given beside the values
SK-MEL-2 = assay: Growth inhibition of human SK-MEL-2 cells assessed as cell growth incubated for 48 hrs by sulforhodamine B assay; parameters: concentration or dose not given beside the values
LOX IMVI = assay: Growth inhibition of human LOXIMVI cells assessed as cell growth incubated for 48 hrs by sulforhodamine B assay; parameters: concentration or dose not given beside the values
786-0 = assay: Growth inhibition of human 786-0 cells assessed as cell growth incubated for 48 hrs by sulforhodamine B assay; parameters: concentration or dose not given beside the values
HCT-116 = assay: Growth inhibition of human HCT116 cells assessed as cell growth incubated for 48 hrs by sulforhodamine B assay; parameters: concentration or dose not given beside the values
HCC 2998 = assay: Growth inhibition of human HCC2998 cells assessed as cell growth incubated for 48 hrs by sulforhodamine B assay; parameters: concentration or dose not given beside the values
SK-MEL-5 = assay: Growth inhibition of human SK-MEL-5 cells assessed as cell growth incubated for 48 hrs by sulforhodamine B assay; parameters: concentration or dose not given beside the values
OVCAR-3 = assay: Growth inhibition of human OVCAR3 cells assessed as cell growth incubated for 48 hrs by sulforhodamine B assay; parameters: concentration or dose not given beside the values
KM12 = assay: Growth inhibition of human KM12 cells assessed as cell growth incubated for 48 hrs by sulforhodamine B assay; parameters: concentration or dose not given beside the values
SK-OV-3 = assay: Growth inhibition of human SKOV3 cells assessed as cell growth incubated for 48 hrs by sulforhodamine B assay; parameters: concentration or dose not given beside the values
U-251 = assay: Growth inhibition of human U251 cells assessed as cell growth incubated for 48 hrs by sulforhodamine B assay; parameters: concentration or dose not given beside the values
HOP-62 = assay: Growth inhibition of human HOP62 cells assessed as cell growth incubated for 48 hrs by sulforhodamine B assay; parameters: concentration or dose not given beside the values
A498 = assay: Growth inhibition of human A498 cells assessed as cell growth incubated for 48 hrs by sulforhodamine B assay; parameters: concentration or dose not given beside the values
MDA-MB-231 = assay: Growth inhibition of human MDA-MB-231 cells assessed as cell growth incubated for 48 hrs by sulforhodamine B assay; parameters: concentration or dose not given beside the values

O=C([O-])CCc1ccc2c(=O)c3sc4c(=O)c5ccccc5c(=O)c4c3c(=O)c2c1.[Na+]
Activity (SNB-75): -92.01% | Activity (RXF 393): -40.51% | Activity (RPMI-8226): -23.33% | Activity (DU-145): -94.06% | Activity (UACC-62): -86.72% | Activity (Malme-3M): -95.72% | Activity (HL-60(TB)): -1.51% | Activity (HOP-92): 21.71% | Activity (CAKI-1): -11.28% | Activity (IGROV-1): -45.75% | Activity (MDA-MB-468): -23.55% | Activity (CCRF-CEM): -11.89% | Activity (SF-539): -99.93% | Activity (UO-31): -62.16% | Activity (SN12C): -86.04% | Activity (SW-620): -35.47% | Activity (NCI-H522): -56.08% | Activity (M14): -92.46% | Activity (K562): 1.66% | Activity (MCF7): -42.17% | Activity (SF-268): -4.66% | Activity (NCI-H23): -48.38% | Activity (SNB-19): -46.21% | Activity (ACHN): 3.07% | Activity (MOLT-4): -18.02% | Activity (HT-29): -35.38% | Activity (A549): -52.48% | Activity (T47D): 30.96% | Activity (SR): -13.25% | Activity (SF-295): -92.24% | Activity (PC-3): 4.12% | Activity (OVCAR-8): -11.99% | Activity (UACC-257): -93.7% | Activity (NCI-H226): -50.22% | Activity (TK-10): -13.65% | Activity (Hs-578T): -2.26% | Activity (NCI-H322M): -96.32% | Activity (BT-549): -93.17% | Activity (MDA-MB-435): -79.57% | Activity (NCI-H460): -47.6% | Activity (COLO 205): -95.3% | Activity (HCT-15): -51.47% | Activity (SK-MEL-28): -86.88% | Activity (NCI/ADR-RES): -16.65% | Activity (OVCAR-5): -91.27% | Activity (OVCAR-4): 3.01% | Activity (SK-MEL-2): -61.62% | Activity (LOX IMVI): -79.48% | Activity (786-0): -36.85% | Activity (HCT-116): -11.85% | Activity (HCC 2998): -78.44% | Activity (SK-MEL-5): -98.11% | Activity (OVCAR-3): -20.41% | Activity (KM12): -4.86% | Activity (SK-OV-3): -20.08% | Activity (U-251): -19.72% | Activity (HOP-62): -94.95% | Activity (A498): -94.19% | Activity (MDA-MB-231): 7.51%
